These compounds were tested on termites from the genus/specie Reticulitermes flavipes or Coptotermes formosanus (assay: Termiticide activity (Reference Example 3)). Conditions: 0.5% compound on Whatman #1 filter paper, 20 termites per well, triplicate.
Type: in vivo
Method: The tests, run in triplicate, are set up in three wells of a 6-well polystyrene microtiter plate (3 wells are empty). Four circles of either 3.2 cm Whatman #1 filter paper (cellulose) for the food controls and tests on compounds, or 3.2 cm Whatman GF/C glass microfibre filters (borosilicate glass) for the no-food controls are stacked in each well. For the food controls, 600 microliters of water are added to each wen. For the no-food controls 1200 microliters of water are added to those wells. If the test compounds are water soluble, they are added to the wells in 600 microliters of water to deliver 0.5% compound. Water insoluble test compounds are added to the wells in a solvent in which they are soluble to deliver 0.5% compound, the solvent is evaporated, and 600 microliters of water added per well.
Termiticidal activity for a compound is measured using termites from the genus/specie Reticulitermes flavipes or Coptotermes formosanus. The termites are added in groups of 20 per well. Every 34 days the termites are counted. The number of days until 50% death (DTD50) and 100% death for termites is determined. These values for termites in the wells containing test compounds are compared to the food and no-food controls to determine which compounds display termiticidal activity.
Various compounds were analyzed by the method of Reference Example 3.

SMILES	DTD50 (number of days until 50% death)
OCC1OC(O)(C(F)(F)F)C(O)C(O)C1O (stereo not drawn)	41 days
OCC1OC(F)C(F)C(O)C1O (stereo not drawn)	33 days
OCC1OC(OC2C(CO)OC(Oc3ccccc3)C(O)C2O)C(O)C(O)C1O (stereo not drawn)	27 days
CC(C)(C1CCC(O)CC1)C1CCC(O)CC1 (stereo not drawn) [CAS No. 80-04-6]	62 days
CC(C)(c1ccc(O)cc1)c1ccc(O)cc1 [CAS No. 80-05-7]	42 days
OC[C@H]1O[C@@H](Oc2ccccc2)[C@H](O)[C@@H](O)[C@@H]1O [CAS No. 1464-44-4, Phenyl-beta-D-glycoside]	15 days
O=C(Nc1ccccc1)c1cccnc1 [CAS No. 1752-96-1]	80 days
CC1(C)CC(O)CC(C)(C)N1O [CAS No. 2226-96-2]	32 days
Cc1nc2cc(C)c(C)cc2[nH]1 [CAS No. 3363-56-2]	63 days
CC(C)NCC(O)COc1cccc2ccccc12 (stereo not drawn) [CAS No. 4199-10-4]	77 days
COc1ccc(NC(=O)CC(C)=O)cc1 [CAS No. 5437-98-9]	31 days
CC(=O)c1ccc(-n2ccnc2)cc1 [CAS No. 10041-06-2]	35 days
CC(=O)Oc1ccc(C(C)(C)c2ccc(OC(C)=O)cc2)cc1 [CAS No. 10192-62-8]	70 days
COC(=O)C[S+]([O-])c1ccccc1 (stereo not drawn) [CAS No. 14090-83-6]	35 days
O=c1c2ccccc2nnn1O [CAS No. 28230-32-2]	80 days
NC1CCN(Cc2ccccc2)CC1 [CAS No. 50541-93-0]	59 days
O=[N+]([O-])c1ccc(OC2OC(CO)C(OC3OC(CO)C(O)C(O)C3O)C(O)C2F)c([N+](=O)[O-])c1 (stereo not drawn) [CAS No. 154862-23-4]	66 days
O=[N+]([O-])c1ccc(OC2OC(CO)C(OC3OC(CO)C(OC4OC(CO)C(O)C(O)C4O)C(O)C3O)C(O)C2F)c([N+](=O)[O-])c1 (stereo not drawn) [CAS No. 213193-76-1]	60 days

Same assay, conditions: at day 73; 0.5% compound on filter paper, 20 termites per well

SMILES	termite death (printed in DTD50 column)
Cc1cc(C(C)(C)c2cc(C)c(O)c(C)c2)cc(C)c1O [CAS No. 5613-46-7]	42% atday 73

Same assay, conditions: by day 53; 0.5% compound on filter paper, 20 termites per well

SMILES	termite death (printed in DTD50 column)
O=S(=O)(NCCc1c[nH]cn1)c1ccccc1 [CAS No. 195052-64-3]	48%by day53

These compounds were tested on termites (assay: Termiticide preference test (Reference Example 4)). Conditions: 100 termites per dish, about 7 days.
Type: in vivo
Method: The test is performed in 100 millimeter Petri dishes into which 20 grams of washed sand and 2 milliliters of water are distributed. Six circles (three plain and thee treated with the compound of interest) of Whatman #1 filter paper (15 millimeters) are used as food. The treated circles are prepared by pipetting a small volume (approximately 25 microliters) of a solution of the compound in an appropriate solvent onto the filter paper circles, and then evaporating the solvent.
The filter paper circles are arranged in the dish in two rows using an alternating pattern of treated and untreated. One hundred termites are then added to the dish. The test is run for about 7 days to determine if any eating preference is seen between the treated and untreated filter paper circles.

SMILES	preference test result (treated vs untreated filter paper circles)
CC(C)(C1CCC(O)CC1)C1CCC(O)CC1 (stereo not drawn) [CAS No. 80-04-6]	passes the preference test

From US7157078B2, “Devices and methods for eliminating termite colonies” (The University of Florida Research Foundation, Inc., priority 2001, dated 2007)
